Values quoted from earlier work in US7163702B1 (priority 2004, dated 2007).

Details: human, in vivo

## N=C(N)c1ccc(OCCCCCOc2ccc(C(=N)N)cc2)cc1 [pentamidine]
  incidence of adverse reactions: around 50%
